Marks after values point to notes of the source that are not given here.
Tests used:
PEDV [1] = test: Intestinal histology score and immunohistochemistry of PEDV-challenged nursery pigs; type: in vivo, pig; details: not significant (P>0.05)
Method: (§1) Viral shedding values was evaluated by RMANOVA and the PROC MIXED procedure of SAS (SAS, Cary, N.C.). Other variables for analysis included growth performance data (average daily gain, or ADG; average daily feed intake, or ADFI; and feed efficiency (unit of weight gain per unit of feed consumed), or G:F), incidence and severity of diarrhea, depression, and gauntness scores, and intestinal histology score and immunohistochemistry. The analysis of the growth performance outcomes were conducted using a generalized linear mixed model and the PROC MIXED procedure of SAS.
The effects of narasin inclusion level on the intestinal histology score and immunohistochemistry were analyzed. As narasin level increased from 0, 30, 60 mg/kg), histology scores decreased from 2 to 0 while the immunohistochemistry score decreased only at the 60 mg/kg level (from 3 to 2) although differences were not significant (P>0.05).

PEDV [2] = test: Viral shedding of PEDV in fecal swabs by real-time RT-PCR; type: in vivo, pig; details: for Viral shedding: only pigs positive for shedding
Method: (§2) The seventy-five piglets were randomly assigned to one of three treatment groups: control (no ionophore), narasin (30 mg/kg) and narasin (60 mg/kg). They acclimatized to their environment and were fed daily for seven days prior to exposure with PEDV on Day 0. Treatment continued for 14 days following challenge. Pigs from the three treatment groups were administered orally with 4×10^4 TCID50/mL of the PEDV isolate PEDV/USA/NC/2013/49469 (College of Veterinary Medicine, Iowa State University). The piglets were monitored daily for changes in clinical parameters, clinical score for diarrhea, depression and gauntness, rate of food consumption, and rate of body weight change and viral swabs were taken daily to determine viral shedding.
as §1
The effects of narasin levels (0, 30, 60 mg/kg) on within-day viral shedding of nursery pigs (Table 4) and percentage of nursery pigs shedding PEDV (Table 5) are compared. Fecal swabs were collected from all pigs on test daily from Day 0 to 14 of study. Each sample was labeled with pig identification, pen number, and sample day. All samples were frozen at the time of collection and stored until required for analysis. Only fecal swab samples collected from days 0, 1, 2, 3, 4, 5, 6, 7, 8, 9, and 14 were sent for analysis. Fecal swab samples were sent to the Iowa State Veterinary Diagnostic Laboratory (ISVDL) and were analyzed using real-time RT-PCR to determine viral shedding of PEDV.

PEDV [3] = test: Growth performance of nursery pigs challenged with PEDV, narasin in feed; type: in vivo, pig; details: for numerical increase of overall ADG compared to the control / numerical increase of overall G:F compared to the control: overall (Day 0 to 14)
Excerpt: Eighty-one weaning stage (21.8+/−0.6 days) commercial crossbred piglets (Wilson's Prairie View Farms, Burlington, Wis.) free of PEDV infection arrived at the site and six were used as potential replacement animals during the pre-challenge period (Day −7 to Day 0). Six piglets were removed at Day 0 immediately prior to PEDV challenge, resulting in fifteen pens containing five piglets/pen (n=75) animals. There were five pens per treatment. For balance of sentinel piglets within a block, a total of thirty-nine piglets of one gender and thirty-six of the other gender were used. The use of five pens (twenty-five piglets) per treatment group was estimated to detect significant differences (P<0.10) between treatment groups in growth performance and incidence of viral shedding.
as §2, §1
Diet formulations were manufactured at Provimi (Lewisburg, Ohio) and fed in meal form.
The effects of narasin inclusion level on mean body weights (BW), average daily weight gain (ADG), average daily feed intake (ADFI), feed efficiency (G:F), and feed conversion ratio (F:G) are shown in Table 1.

[4] = test system: flavivirus responsible for dengue fever; details: added to cultured human cells infected with the virus (Low, et al. 2011); cited from earlier work
nursery pigs = details: about 83 mg/kg feed, at least in the presence of tiamulin; cited from earlier work
[5] = 60 mg/kg feed, Day 0 to 5, P<0.10

Compound: CC[C@@H](C(=O)O)[C@@H]1O[C@@H]([C@@H](C)[C@H](O)[C@H](C)C(=O)[C@H](CC)[C@H]2O[C@]3(C=C[C@@H](O)[C@]4(CC[C@@](C)([C@H]5CC[C@](O)(CC)[C@H](C)O5)O4)O3)[C@H](C)C[C@@H]2C)[C@@H](C)C[C@@H]1C [narasin]
- immunohistochemistry score (PEDV [1]; 60 mg/kg feed, decreased from 3): 2
- intestinal histology score (PEDV [1]; narasin level increased 0, 30, 60 mg/kg: decreased from 2 to 0): 0
- duration of shedding (PEDV [2]; 0, 30, 60 mg/kg feed): generally decreased as narasin level increased
- effect of narasin level on the percentage of pigs shedding PEDV (PEDV [2]; 0, 30, 60 mg/kg feed, P>0.10): no effect
- viral shedding compared to the control (PEDV [2]; 30 mg/kg feed): lower (P<0.10) viral shedding on Day 2 and Day 3
- Viral shedding (PEDV [2]; 30 mg/kg feed, Day 0): 0 cells/mL
- Viral shedding (PEDV [2]; 30 mg/kg feed, Day 1): 1 cells/mL
- Viral shedding (PEDV [2]; 30 mg/kg feed, Day 2): 1,005* cells/mL
- Viral shedding (PEDV [2]; 30 mg/kg feed, Day 3): 152,889* cells/mL
- Viral shedding (PEDV [2]; 30 mg/kg feed, Day 4): 7,543,717 cells/mL
- Viral shedding (PEDV [2]; 30 mg/kg feed, Day 5): 108,303,640 cells/mL
- Viral shedding (PEDV [2]; 30 mg/kg feed, Day 6): 879,972,048 cells/mL
- Viral shedding (PEDV [2]; 30 mg/kg feed, Day 7): 1,422,120,182 cells/mL
- Viral shedding (PEDV [2]; 30 mg/kg feed, Day 8): 268,967,479 cells/mL
- Viral shedding (PEDV [2]; 30 mg/kg feed, Day 9): 63,817,042 cells/mL
- Viral shedding (PEDV [2]; 30 mg/kg feed, Day 14): 2,256 cells/mL
- viral shedding compared to the control (PEDV [2]; 60 mg/kg feed): lower (P<0.10) viral shedding on Day 2, 3, 4, 5, and 6
- Viral shedding (PEDV [2]; 60 mg/kg feed, Day 0): 0 cells/mL
- Viral shedding (PEDV [2]; 60 mg/kg feed, Day 1): 0 cells/mL
- Viral shedding (PEDV [2]; 60 mg/kg feed, Day 2): 1* cells/mL
- Viral shedding (PEDV [2]; 60 mg/kg feed, Day 3): 4,085* cells/mL
- Viral shedding (PEDV [2]; 60 mg/kg feed, Day 4): 18,980* cells/mL
- Viral shedding (PEDV [2]; 60 mg/kg feed, Day 5): 593,842* cells/mL
- Viral shedding (PEDV [2]; 60 mg/kg feed, Day 6): 5,551,647* cells/mL
- Viral shedding (PEDV [2]; 60 mg/kg feed, Day 7): 171,586,154 cells/mL
- Viral shedding (PEDV [2]; 60 mg/kg feed, Day 8): 58,813,444 cells/mL
- Viral shedding (PEDV [2]; 60 mg/kg feed, Day 9): 16,189,481 cells/mL
- Viral shedding (PEDV [2]; 60 mg/kg feed, Day 14): 9,262 cells/mL
- effect of narasin level on overall growth performance (PEDV [3]; 0, 30, 60 mg/kg feed, Day 0 to 14, P>0.10): no effect
- differences for ADG, ADFI, G:F, or F:G (PEDV [3]; 0, 30, 60 mg/kg feed, Day 5 to 14): no statistical differences
- BW (PEDV [3]; 30 mg/kg feed, Day 0 (PEDV challenge)): 16.9 lb
- ADFI (PEDV [3]; 30 mg/kg feed, Day 0 to 5): 0.68 lb
- ADG (PEDV [3]; 30 mg/kg feed, Day 0 to 5): 0.38* lb
- F:G (PEDV [3]; 30 mg/kg feed, Day 0 to 5): 1.93 lb:lb
- G:F (PEDV [3]; 30 mg/kg feed, Day 0 to 5): 0.551 lb:lb
- increase of ADG compared to the control (PEDV [3]; 30 mg/kg feed, Day 0 to 5, P<0.10): 58.3%
- ADFI (PEDV [3]; 30 mg/kg feed, Day 0 to 14): 1.00 lb
- ADG (PEDV [3]; 30 mg/kg feed, Day 0 to 14): 0.70 lb
- F:G (PEDV [3]; 30 mg/kg feed, Day 0 to 14): 1.48 lb:lb
- G:F (PEDV [3]; 30 mg/kg feed, Day 0 to 14): 0.711 lb:lb
- BW (PEDV [3]; 30 mg/kg feed, Day 5): 18.7 lb
- ADFI (PEDV [3]; 30 mg/kg feed, Day 5 to 14): 1.23 lb
- ADG (PEDV [3]; 30 mg/kg feed, Day 5 to 14): 0.92 lb
- F:G (PEDV [3]; 30 mg/kg feed, Day 5 to 14): 1.38 lb:lb
- G:F (PEDV [3]; 30 mg/kg feed, Day 5 to 14): 0.772 lb:lb
- BW (PEDV [3]; 30 mg/kg feed, Day 14): 26.9 lb
- BW (PEDV [3]; 30 mg/kg feed, Day −7 (arrival, allotment)): 14.9* lb
- ADFI (PEDV [3]; 30 mg/kg feed, Day −7 to 0): 0.37 lb
- ADG (PEDV [3]; 30 mg/kg feed, Day −7 to 0): 0.29 lb
- F:G (PEDV [3]; 30 mg/kg feed, Day −7 to 0): 1.33 lb:lb
- G:F (PEDV [3]; 30 mg/kg feed, Day −7 to 0): 0.802 lb:lb
- numerical increase of overall ADG compared to the control (PEDV [3]; 30 mg/kg feed): 7.7%
- numerical increase of overall G:F compared to the control (PEDV [3]; 30 mg/kg feed): 7.9%
- BW (PEDV [3]; 60 mg/kg feed, Day 0 (PEDV challenge)): 16.7 lb
- ADFI (PEDV [3]; 60 mg/kg feed, Day 0 to 5): 0.71 lb
- ADG (PEDV [3]; 60 mg/kg feed, Day 0 to 5): 0.48* lb
- F:G (PEDV [3]; 60 mg/kg feed, Day 0 to 5): 1.56 lb:lb
- G:F (PEDV [3]; 60 mg/kg feed, Day 0 to 5): 0.670* lb:lb
- increase of ADG compared to the control (PEDV [3]; [5]): 100%
- increase of G:F compared to 0 mg/kg narasin (PEDV [3]; [5]): 78.7%
- ADFI (PEDV [3]; 60 mg/kg feed, Day 0 to 14): 1.01 lb
- ADG (PEDV [3]; 60 mg/kg feed, Day 0 to 14): 0.70 lb
- F:G (PEDV [3]; 60 mg/kg feed, Day 0 to 14): 1.44 lb:lb
- G:F (PEDV [3]; 60 mg/kg feed, Day 0 to 14): 0.698 lb:lb
- BW (PEDV [3]; 60 mg/kg feed, Day 5): 19.2 lb
- ADFI (PEDV [3]; 60 mg/kg feed, Day 5 to 14): 1.22 lb
- ADG (PEDV [3]; 60 mg/kg feed, Day 5 to 14): 0.85 lb
- F:G (PEDV [3]; 60 mg/kg feed, Day 5 to 14): 1.42 lb:lb
- G:F (PEDV [3]; 60 mg/kg feed, Day 5 to 14): 0.708 lb:lb
- BW (PEDV [3]; 60 mg/kg feed, Day 14): 26.9 lb
- BW (PEDV [3]; 60 mg/kg feed, Day −7 (arrival, allotment)): 14.9* lb
- ADFI (PEDV [3]; 60 mg/kg feed, Day −7 to 0): 0.36 lb
- ADG (PEDV [3]; 60 mg/kg feed, Day −7 to 0): 0.26* lb
- F:G (PEDV [3]; 60 mg/kg feed, Day −7 to 0): 1.38 lb:lb
- G:F (PEDV [3]; 60 mg/kg feed, Day −7 to 0): 0.742 lb:lb
- decrease of ADG compared to the control (PEDV [3]; 60 mg/kg feed, Day −7 to 0, P<0.10): 18.8%
- numerical increase of overall ADG compared to the control (PEDV [3]; 60 mg/kg feed): 7.7%
- numerical increase of overall G:F compared to the control (PEDV [3]; 60 mg/kg feed): 5.9%
- replication of dengue flavivirus [4]: block replication
- toxicity to nursery pigs (nursery pigs): toxic
